Results from patent US6914045B2, “Glycopeptide antibiotics” (Wyeth Holdings Corporation, priority 2001, dated 2005).

Columns and labels:
Streptococcus sp. = assay: in vitro antibacterial evaluation, MIC by broth dilution; type: cell-based; details: broth dilution, 18 hours at 35° C.
Method in brief: (§1)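 Inoculum 5×10^5 CFU/mL; concentrations 64 to 0.06 μg/mL; MIC defined as lowest inhibitory level. Conducted by broth dilution under NCCLS guidelines.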

Enterococcus sp. = assay: as above; type: cell-based; details: broth dilution, 18 hours at 35° C.
Method in brief: as §1

Staphylococcus sp. = assay: as above; type: cell-based; details: broth dilution, 18 hours at 35° C.
Method in brief: as §1

Escherichia coli [1] = assay: as above; type: cell-based; details: 18 hours at 35° C.
[2] = system: Staphylococcus aureus-SMITH (GC 4543); assay: acute lethal infection in mice; type: in vivo; details: acute lethal infection, female CD-1 mice, intraperitoneal challenge, intravenous 30 min. after infection, 7 day survival
Method in brief: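 Female CD-1 mice (20±2 g) got an intraperitoneal bacterial challenge lethal to untreated controls within 24–48 hr. Compound was dosed intravenously 30 min after infection, five mice per dose. ED50 was calculated from 7-day survival pooled across 3 tests.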

Escherichia coli [3] = assay: in vitro antibacterial evaluation, MIC by broth dilution; type: cell-based; details: 18 hours at 35° C.; remark: listed apart in the source
Method in brief: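 Broth dilution per NCCLS standard M7-A2 in Muller-Hinton II […], with an inoculum of 5×10^5 CFU/mL and antibiotic spanning 64-0.06 μg/mL. The MIC is the lowest concentration that inhibits growth of the organism.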

CC(c1ccccc1)C1NC(=O)CNC(=O)C(CO)NC(=O)C(C(O)C2CNC(=N)N2C2OC(CO)C(O)C(O)C2O)NC(=O)C(C(O)C2CNC(=N)N2)NC(=O)C(Cc2ccc(OC3OC(CO)C(OC4OC(COCc5ccc(OCc6ccccc6)cc5)C(O)C(O)C4O)C(O)C3O)cc2)NC1=O (stereo not drawn) [Example 231, Cyclo[glycyl-β-methylphenylalanyl-O-[4-O-[6-O-[4-(phenylmethoxy)benzyl]hexopyranosyl]-hexopyranosyl]tyrosyl-3-(2-iminoimidazolidin-4-yl)seryl-3-(3-hexopyranosyl-2-iminoimidazolidin-4-yl)serylseryl]]
4 mg/L: MIC Enterococcus faecalis (ATCC 29212) (Enterococcus sp.) | MIC Enterococcus faecalis (GC 2242) (Enterococcus sp.) | MIC Enterococcus faecalis (GC 4552) (Enterococcus sp.) | MIC Enterococcus faecalis (GC 4553) (Enterococcus sp.) | MIC Enterococcus faecalis (GC 4554) (Enterococcus sp.) | MIC Enterococcus faecium (GC 2243) (Enterococcus sp.) | MIC Enterococcus faecium (GC 4556) (Enterococcus sp.) | MIC Enterococcus faecalis (ATCC 29212) (Enterococcus sp.; inoculum 5×10^5 CFU/mL, strain ATCC 29212) | MIC Enterococcus faecalis (GC 2242) (Enterococcus sp.; inoculum 5×10^5 CFU/mL, strain GC 2242) | MIC Enterococcus faecium (GC 2243) (Enterococcus sp.; inoculum 5×10^5 CFU/mL, strain GC 2243) | MIC Enterococcus faecalis (GC 4552) (Enterococcus sp.; inoculum 5×10^5 CFU/mL, strain GC 4552) | MIC Enterococcus faecalis (GC 4553) (Enterococcus sp.; inoculum 5×10^5 CFU/mL, strain GC 4553) | MIC Enterococcus faecalis (GC 4554) (Enterococcus sp.; inoculum 5×10^5 CFU/mL, strain GC 4554) | MIC Enterococcus faecium (GC 4556) (Enterococcus sp.; inoculum 5×10^5 CFU/mL, strain GC 4556)
1 to 4 mg/L: MIC Staphylococcus aureus (ATCC 29213) (Staphylococcus sp.) | MIC Staphylococcus aureus (GC 4541) (Staphylococcus sp.) | MIC Staphylococcus aureus (GC 4545) (Staphylococcus sp.) | MIC Staphylococcus haemolyticus (GC 4546) (Staphylococcus sp.) | MIC Staphylococcus aureus (ATCC 29213) (Staphylococcus sp.; strain ATCC 29213) | MIC Staphylococcus aureus (GC 4541) (Staphylococcus sp.; strain GC 4541) | MIC Staphylococcus aureus (GC 4545) (Staphylococcus sp.; strain GC 4545) | MIC Staphylococcus haemolyticus (GC 4546) (Staphylococcus sp.; strain GC 4546)
2 mg/L: MIC Staphylococcus aureus-SMITH (GC 4543) (Staphylococcus sp.) | MIC Staphylococcus aureus-SMITH (GC 4543) (Staphylococcus sp.; strain GC 4543)
0.5 to 1 mg/L: MIC Coagulase Negative Staphylococcus (GC 4548) (Staphylococcus sp.) | MIC Coagulase Negative Staphylococcus (GC 6257) (Staphylococcus sp.) | MIC Coagulase Negative Staphylococcus (GC 4548) (Staphylococcus sp.; strain GC 4548) | MIC Coagulase Negative Staphylococcus (GC 6257) (Staphylococcus sp.; strain GC 6257)
2 to 4 mg/L: MIC Enterococcus avium (GC 4558) (Enterococcus sp.) | MIC Enterococcus faecalis (GC 2691) (Enterococcus sp.) | MIC Enterococcus faecalis (GC 3059) (Enterococcus sp.) | MIC Enterococcus faecalis (GC 6189) (Enterococcus sp.) | MIC Enterococcus faecalis (GC 2691) (Enterococcus sp.; inoculum 5×10^5 CFU/mL, strain GC 2691) | MIC Enterococcus faecalis (GC 3059) (Enterococcus sp.; inoculum 5×10^5 CFU/mL, strain GC 3059) | MIC Enterococcus avium (GC 4558) (Enterococcus sp.; inoculum 5×10^5 CFU/mL, strain GC 4558) | MIC Enterococcus faecalis (GC 6189) (Enterococcus sp.; inoculum 5×10^5 CFU/mL, strain GC 6189) | MIC Staphylococcus aureus (GC 1131) (Staphylococcus sp.) | MIC Staphylococcus aureus (GC 4542) (Staphylococcus sp.) | MIC Staphylococcus aureus (GC 4544) (Staphylococcus sp.) | MIC Staphylococcus aureus (GC 1131) (Staphylococcus sp.; strain GC 1131) | MIC Staphylococcus aureus (GC 4542) (Staphylococcus sp.; strain GC 4542) | MIC Staphylococcus aureus (GC 4544) (Staphylococcus sp.; strain GC 4544)
0.25 mg/kg: median effective dose (ED50), Staphylococcus aureus-SMITH (GC 4543) [2]
0.5 to 2 mg/L: MIC Escherichia coli (GC 4560) (Escherichia coli [1])
0.25 to 0.5 mg/L: MIC Coagulase Negative Staphylococcus (GC 4549) (Staphylococcus sp.) | MIC Coagulase Negative Staphylococcus (GC 4549) (Staphylococcus sp.; strain GC 4549)
>128 mg/L: MIC Escherichia coli (ATCC 25922) (Escherichia coli [1]) | MIC Escherichia coli (GC 4559) (Escherichia coli [1])
<0.06 mg/L: MIC Streptococcus agalactiae (GC 4564) (Streptococcus sp.) | MIC Streptococcus pneumoniae (ATCC 6301) (Streptococcus sp.) | MIC Streptococcus pneumoniae (GC 1894) (Streptococcus sp.) | MIC Streptococcus pneumoniae (GC 4565) (Streptococcus sp.) | MIC Streptococcus pyogenes (GC 4563) (Streptococcus sp.) | MIC Streptococcus pneumoniae (ATCC 6301) (Streptococcus sp.; inoculum 5×10^5 CFU/mL, strain ATCC 6301) | MIC Streptococcus pneumoniae (GC 1894) (Streptococcus sp.; inoculum 5×10^5 CFU/mL, strain GC 1894) | MIC Streptococcus pyogenes (GC 4563) (Streptococcus sp.; inoculum 5×10^5 CFU/mL, strain GC 4563) | MIC Streptococcus agalactiae (GC 4564) (Streptococcus sp.; inoculum 5×10^5 CFU/mL, strain GC 4564) | MIC Streptococcus pneumoniae (GC 4565) (Streptococcus sp.; inoculum 5×10^5 CFU/mL, strain GC 4565)
1 mg/L: MIC Coagulase Negative Staphylococcus (GC 4551) (Staphylococcus sp.) | MIC Coagulase Negative Staphylococcus (GC 4551) (Staphylococcus sp.; strain GC 4551)
1 to 2 mg/L: MIC Enterococcus faecium (GC 4557) (Enterococcus sp.) | MIC Enterococcus faecium (GC 4557) (Enterococcus sp.; inoculum 5×10^5 CFU/mL, strain GC 4557) | MIC Coagulase Negative Staphylococcus (GC 4547) (Staphylococcus sp.) | MIC Staphylococcus aureus (GC 3051) (Staphylococcus sp.) | MIC Staphylococcus aureus (GC 3053) (Staphylococcus sp.) | MIC Staphylococcus aureus (GC 3051) (Staphylococcus sp.; strain GC 3051) | MIC Staphylococcus aureus (GC 3053) (Staphylococcus sp.; strain GC 3053) | MIC Coagulase Negative Staphylococcus (GC 4547) (Staphylococcus sp.; strain GC 4547)

CC(C)CC(=O)OC1C(O)C(CO)OC(OC2C(CO)OC(Oc3ccc(CC4NC(=O)C(C(C)c5ccc(Cl)cc5)NC(=O)CNC(=O)C(CO)NC(=O)C(C(O)C5CNC(=N)N5C5OC(CO)C(O)C(O)C5O)NC(=O)C(C(O)C5CNC(=N)N5)NC4=O)cc3)C(O)C2O)C1O (stereo not drawn) [Example 262b, Cyclo[glycyl-4-chloro-β-methylphenylalanyl-O-[4-O-[3-O-(3-methylbutanoyl)hexopyranosyl]-hexopyranosyl]tyrosyl-3-(2-iminoimidazolidin-4-yl)seryl-3-(3-hexopyranosyl-2-iminoimidazolidin-4-yl)serylseryl]]
1.22 mg/kg: median effective dose (ED50), Staphylococcus aureus-SMITH (GC 4543) [2]
4 mg/L: MIC Staphylococcus aureus (ATCC 29213) (Staphylococcus sp.) | MIC Staphylococcus aureus (GC 1131) (Staphylococcus sp.) | MIC Staphylococcus aureus (GC 4544) (Staphylococcus sp.) | MIC Staphylococcus aureus (ATCC 29213) (Staphylococcus sp.; strain ATCC 29213) | MIC Staphylococcus aureus (GC 1131) (Staphylococcus sp.; strain GC 1131) | MIC Staphylococcus aureus (GC 4544) (Staphylococcus sp.; strain GC 4544)
2 mg/L: MIC Enterococcus faecium (GC 4557) (Enterococcus sp.; Enterococcus faecium (GC 4557)) | MIC Enterococcus faecium (GC 4557) (Enterococcus sp.; strain GC 4557) | MIC Coagulase Negative Staphylococcus (GC 4547) (Staphylococcus sp.) | MIC Coagulase Negative Staphylococcus (GC 4551) (Staphylococcus sp.) | MIC Staphylococcus aureus (GC 4541) (Staphylococcus sp.) | MIC Staphylococcus aureus (GC 4542) (Staphylococcus sp.) | MIC Staphylococcus aureus (GC 4545) (Staphylococcus sp.) | MIC Staphylococcus haemolyticus (GC 4546) (Staphylococcus sp.) | MIC Staphylococcus aureus (GC 4541) (Staphylococcus sp.; strain GC 4541) | MIC Staphylococcus aureus (GC 4542) (Staphylococcus sp.; strain GC 4542) | MIC Staphylococcus aureus (GC 4545) (Staphylococcus sp.; strain GC 4545) | MIC Staphylococcus haemolyticus (GC 4546) (Staphylococcus sp.; strain GC 4546) | MIC Coagulase Negative Staphylococcus (GC 4547) (Staphylococcus sp.; strain GC 4547) | MIC Coagulase Negative Staphylococcus (GC 4551) (Staphylococcus sp.; strain GC 4551)
32 mg/L: MIC Enterococcus faecalis (ATCC 29212) (Enterococcus sp.; Enterococcus faecalis (ATCC 29212)) | MIC Enterococcus faecalis (GC 4553) (Enterococcus sp.; Enterococcus faecalis (GC 4553)) | MIC Enterococcus faecalis (GC 4554) (Enterococcus sp.; Enterococcus faecalis (GC 4554)) | MIC Enterococcus faecalis (ATCC 29212) (Enterococcus sp.; strain ATCC 29212) | MIC Enterococcus faecalis (GC 4552) (Enterococcus sp.; strain GC 4552) | MIC Enterococcus faecalis (GC 4553) (Enterococcus sp.; strain GC 4553) | MIC Enterococcus faecalis (GC 4554) (Enterococcus sp.; strain GC 4554)
>64 mg/L: MIC Escherichia coli (ATCC 25922) (Escherichia coli [3]; Escherichia coli (ATCC 25922)) | MIC Escherichia coli (GC 4559) (Escherichia coli [3]; Escherichia coli (GC 4559))
1 mg/L: MIC Streptococcus agalactiae (GC 4564) (Streptococcus sp.; strain GC 4564) | MIC Streptococcus pyogenes (ID-3187) (Streptococcus sp.; strain ID-3187) | MIC Escherichia coli (GC 4560) (Escherichia coli [3]; Escherichia coli (GC 4560)) | MIC Coagulase Negative Staphylococcus (GC 4548) (Staphylococcus sp.) | MIC Coagulase Negative Staphylococcus (GC 4549) (Staphylococcus sp.) | MIC Staphylococcus aureus-SMITH (GC 4543) (Staphylococcus sp.) | MIC Coagulase Negative Staphylococcus (GC 4548) (Staphylococcus sp.; strain GC 4548) | MIC Coagulase Negative Staphylococcus (GC 4549) (Staphylococcus sp.; strain GC 4549) | MIC Staphylococcus aureus-SMITH (GC 4543) (Staphylococcus sp.; strain SMITH GC 4543)
16 mg/L: MIC Enterococcus avium (GC 4558) (Enterococcus sp.; Enterococcus avium (GC 4558)) | MIC Enterococcus faecium (GC 2243) (Enterococcus sp.; Enterococcus faecium (GC 2243)) | MIC Enterococcus faecium (GC 4556) (Enterococcus sp.; Enterococcus faecium (GC 4556)) | MIC Enterococcus faecalis (GC 2242) (Enterococcus sp.; strain GC 2242) | MIC Enterococcus faecium (GC 2243) (Enterococcus sp.; strain GC 2243) | MIC Enterococcus faecium (GC 4556) (Enterococcus sp.; strain GC 4556) | MIC Enterococcus avium (GC 4558) (Enterococcus sp.; strain GC 4558)
